Experimental findings from patent publication US20210038607A1, “OXADIAZOLYLTHIOPHENE DERIVATIVES USEFUL AS HISTONE DEACETYLASE INHIBITORS” (Karus Therapeutics Limited, priority 2018, published 2021) are described below.

One assay concerns the target T1, Human HDAC9 (Homo sapiens, UniProt Q9UKV0).
T1 construct: amino acids 604-1066 with C-terminal His tag; His (C); host or cells: baculovirus expression system
Kind of assay: HDAC9 biochemical assay, class IIa-specific substrate. As to conditions: read-out: HDAC Isoform IC50 (nM) 9. On the procedure:
(§1) Activity against all zinc-dependent HDACs 1 to 11 was assessed by using an acetylated AMC-labeled peptide substrate. The substrate RHKK(Ac)AMC was used for HDAC1, HDAC2, HDAC3, HDAC6 and HDAC10; the substrate used for HDAC8 was RHK(Ac)K(Ac)AMC. Activity against the class IIa HDACs (HDAC4, 5, 7, 9) and HDAC11 was determined using a class IIa-specific substrate, BOC-Lys(trifluoroacetyl)-AMC (“Trifluoroacetyl Lysine”; see Lahm et al, 2007, PNAS, 104, 17335-17340). All assays were based on the AMC-labeled substrate and developer combination.
(§2) The protocol involved a two-step reaction: first, the substrate with the acetylated lysine side chain is incubated with a sample containing HDAC activity, to produce the deacetylated products, which are then digested in the second step by the addition of developer to produce the fluorescent signal proportional to the amount of deacetylated substrates.
Human HDAC9 (GenBank Accession No. NM_178423), amino acids 604-1066 with C-terminal His tag, MW=50.7 kDa, expressed in baculovirus expression system.
(§3) Assay Buffer: 50 mM Tris-HCl, pH8.0, 137 mM NaCl, 2.7 mM KCl, 1 mM MgC2. Before use, 1 mg/mL BSA and DMSO are added.
(§4) For class IIa HDACs, assay buffer is the same.
HDAC9: 0.06 ng/ul HDAC9 and 50 μM Class IIa HDAC substrate are in the reaction buffer with 1% DMSO final. Incubate for 30 minutes at room temperature.
(§5) Stage 1: Deacetylation of substrate by incubation of HDAC enzymes with compounds
(§6) Stage 2: Development by addition of Developer to digest the deacetylated substrate, and generate the fluorescent colour; Detection: 360/460 Ex/Em

The next assay concerns the target T2, Human HDAC5 (Homo sapiens, UniProt Q9UQL6).
T2 construct: full length with C-terminal His tag, MW=51.1 kDa; His (C); host or cells: baculovirus expression system
As to the kind of experiment: HDAC5 biochemical assay, class IIa-specific substrate. As to conditions: read-out: HDAC Isoform IC50 (nM) 5. The method, then: as §1, §2
Human HDAC5 (GenBank Accession No. NM_005474), full length with C-terminal His tag, MW=51.1 kDa, expressed in baculovirus expression system.
as §3, §4
HDAC5: 0.05 ng/ul HDAC5 and 50 μM Class IIa HDAC substrate are in the reaction buffer with 1% DMSO final. Incubate for 30 minutes at room temperature.
as §5, §6

The next assay concerns the target T3, Human HDAC1 (Homo sapiens, UniProt Q13547).
T3 construct: full length with C-terminal His-tag and C-terminal FLAG-tag; His (C); FLAG (C); host or cells: baculovirus expression system
As to the kind of experiment: HDAC1 biochemical assay, AMC-labeled peptide substrate. As to conditions: read-out: HDAC Isoform IC50 (nM) 1. The method, then:
as §1, §2
Human HDAC1 (GenBank Accession No. NM_004964), full length with C-terminal His-tag and C-terminal FLAG-tag, MW=56 kDa, expressed in baculovirus expression system.
as §3
HDAC1: 0.3 ng/ul HDAC1 and 50 μM HDAC substrate are in the reaction buffer with 1% DMSO final. Incubate for 1 hour at 30° C.
as §5, §6

In a further assay the target is T4, Human HDAC4 (Homo sapiens, UniProt P56524).
T4 construct: amino acids 627-1085 with N-terminal GST tag; GST (N); host or cells: baculovirus expression system
T4 sequence (P56524 627-1084 limits assumed): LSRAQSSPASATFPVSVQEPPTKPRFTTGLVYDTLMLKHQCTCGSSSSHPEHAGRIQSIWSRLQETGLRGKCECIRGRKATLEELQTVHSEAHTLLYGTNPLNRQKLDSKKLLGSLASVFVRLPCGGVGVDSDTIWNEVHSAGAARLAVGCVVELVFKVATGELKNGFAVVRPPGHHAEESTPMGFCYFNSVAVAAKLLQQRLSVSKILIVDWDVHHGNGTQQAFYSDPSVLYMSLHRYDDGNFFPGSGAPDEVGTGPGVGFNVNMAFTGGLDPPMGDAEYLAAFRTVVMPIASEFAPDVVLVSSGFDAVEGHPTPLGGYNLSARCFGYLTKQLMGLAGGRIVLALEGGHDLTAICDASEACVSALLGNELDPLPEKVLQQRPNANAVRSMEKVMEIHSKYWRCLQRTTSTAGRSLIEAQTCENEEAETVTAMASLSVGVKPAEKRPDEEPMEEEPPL
As to the kind of experiment: HDAC4 biochemical assay, class IIa-specific substrate. As to conditions: read-out: HDAC Isoform IC50 (nM) 4. The method, then: as §1, §2
Human HDAC4 (GenBank Accession No. NM_006037), amino acids 627-1085 with N-terminal GST tag, MW=75.2 kDa, expressed in baculovirus expression system.
as §3, §4
HDAC4: 0.004 ng/ul HDAC4 and 50 μM Class IIa HDAC substrate are in the reaction buffer with 1% DMSO final. Incubate for 30 minutes at room temperature.
as §5, §6

The target of a further assay is T5, Recombinant human HDAC6 (Homo sapiens, UniProt Q9UBN7).
T5 construct: full length, MW=159 kDa; GST (N); host or cells: Sf9 insect cells (baculovirus)
T5 sequence (Q9UBN7 1-1215): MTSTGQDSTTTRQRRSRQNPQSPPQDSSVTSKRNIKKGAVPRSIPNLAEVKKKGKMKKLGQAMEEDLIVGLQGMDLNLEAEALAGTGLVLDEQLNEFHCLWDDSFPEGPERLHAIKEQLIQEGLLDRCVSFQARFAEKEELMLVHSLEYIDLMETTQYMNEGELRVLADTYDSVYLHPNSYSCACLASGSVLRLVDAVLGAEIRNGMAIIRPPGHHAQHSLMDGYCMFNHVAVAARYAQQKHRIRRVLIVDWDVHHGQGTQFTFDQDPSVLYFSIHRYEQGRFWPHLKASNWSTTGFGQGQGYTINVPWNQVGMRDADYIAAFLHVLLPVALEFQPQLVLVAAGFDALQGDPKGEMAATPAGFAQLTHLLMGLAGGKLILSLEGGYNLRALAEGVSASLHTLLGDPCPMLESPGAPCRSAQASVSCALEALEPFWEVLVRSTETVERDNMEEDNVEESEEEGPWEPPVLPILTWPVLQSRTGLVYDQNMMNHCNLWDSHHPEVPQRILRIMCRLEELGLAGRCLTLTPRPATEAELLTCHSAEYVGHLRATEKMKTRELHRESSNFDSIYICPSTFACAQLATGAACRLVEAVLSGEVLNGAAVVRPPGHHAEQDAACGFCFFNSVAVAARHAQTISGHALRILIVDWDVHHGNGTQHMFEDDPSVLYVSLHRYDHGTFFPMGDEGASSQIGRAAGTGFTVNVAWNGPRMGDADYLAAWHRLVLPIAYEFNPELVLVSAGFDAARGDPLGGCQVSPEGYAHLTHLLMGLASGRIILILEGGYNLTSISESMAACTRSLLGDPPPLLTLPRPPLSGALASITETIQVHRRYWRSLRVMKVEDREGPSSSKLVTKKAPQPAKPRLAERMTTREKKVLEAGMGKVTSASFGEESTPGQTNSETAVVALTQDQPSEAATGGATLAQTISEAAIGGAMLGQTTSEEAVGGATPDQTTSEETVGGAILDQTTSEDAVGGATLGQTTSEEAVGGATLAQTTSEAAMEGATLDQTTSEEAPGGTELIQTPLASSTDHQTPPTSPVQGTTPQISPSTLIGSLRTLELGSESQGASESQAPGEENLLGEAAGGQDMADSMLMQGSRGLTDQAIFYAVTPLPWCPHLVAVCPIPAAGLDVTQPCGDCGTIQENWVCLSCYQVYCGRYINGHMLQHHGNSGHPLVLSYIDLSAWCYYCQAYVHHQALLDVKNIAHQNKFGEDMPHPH
As to the kind of experiment: HDAC6 biochemical assay, AMC-labeled peptide substrate. As to conditions: HDAC6; read-out: HDAC Isoform IC50 (nM) 6. The method, then:
as §1, §2
Recombinant human HDAC6 (GenBank Accession No. BC069243), full length, MW=159 kDa, was expressed by baculovirus in Sf9 insect cells using an N-terminal GST tag.
as §3
HDAC6: 0.3 ng/ul HDAC6 and 50 μM HDAC substrate are in the reaction buffer with 1% DMSO final. Incubate for 1 hours at 30° C.
as §5, §6

A further assay deals with T6, Human HDAC7 (Homo sapiens, UniProt Q8WUI4).
T6 construct: (a.a. 518-end) with N-terminal GST tag; GST (N); host or cells: baculovirus expression system
T6 sequence (Q8WUI4 518-952 limits assumed): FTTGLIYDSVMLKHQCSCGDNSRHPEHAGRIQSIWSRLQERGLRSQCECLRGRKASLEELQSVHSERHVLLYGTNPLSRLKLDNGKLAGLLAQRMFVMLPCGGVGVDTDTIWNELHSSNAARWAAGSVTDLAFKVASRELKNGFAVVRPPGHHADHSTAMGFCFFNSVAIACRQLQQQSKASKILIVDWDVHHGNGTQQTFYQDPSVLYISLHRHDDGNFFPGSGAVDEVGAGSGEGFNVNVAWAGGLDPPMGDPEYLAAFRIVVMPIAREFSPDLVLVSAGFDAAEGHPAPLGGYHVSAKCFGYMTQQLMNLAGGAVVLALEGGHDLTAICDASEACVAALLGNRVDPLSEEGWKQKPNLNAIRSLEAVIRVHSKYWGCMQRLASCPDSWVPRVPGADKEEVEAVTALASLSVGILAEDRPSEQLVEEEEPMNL
Kind of assay: HDAC7 biochemical assay, class IIa-specific substrate. As to conditions: read-out: HDAC Isoform IC50 (nM) 7. The method, then: as §1, §2
Human HDAC7 (GenBank Accession No. AY302468), (a.a. 518-end) with N-terminal GST tag, MW=78 kDa, expressed in baculovirus expression system.
as §3, §4
HDAC7: 0.001 ng/ul HDAC7 and 50 μM Class IIa HDAC substrate are in the reaction buffer with 1% DMSO final. Incubate for 30 minutes at room temperature.
as §5, §6

T1 sequence (Q9UKV0 604-1066 isoform Q9UKV0-5): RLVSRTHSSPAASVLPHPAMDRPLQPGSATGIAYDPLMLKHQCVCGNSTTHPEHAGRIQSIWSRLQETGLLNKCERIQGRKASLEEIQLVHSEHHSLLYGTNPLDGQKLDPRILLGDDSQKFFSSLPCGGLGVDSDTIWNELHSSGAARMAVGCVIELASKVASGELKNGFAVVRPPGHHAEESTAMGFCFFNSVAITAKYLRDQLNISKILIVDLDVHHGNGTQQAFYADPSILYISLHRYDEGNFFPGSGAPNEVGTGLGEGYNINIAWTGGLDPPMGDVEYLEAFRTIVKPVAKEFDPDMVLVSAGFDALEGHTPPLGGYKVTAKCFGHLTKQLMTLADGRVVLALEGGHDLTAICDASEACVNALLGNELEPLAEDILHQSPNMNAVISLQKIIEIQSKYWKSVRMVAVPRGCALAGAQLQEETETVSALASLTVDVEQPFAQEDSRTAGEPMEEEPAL
T2 sequence (Q9UQL6 656-1122 limits assumed): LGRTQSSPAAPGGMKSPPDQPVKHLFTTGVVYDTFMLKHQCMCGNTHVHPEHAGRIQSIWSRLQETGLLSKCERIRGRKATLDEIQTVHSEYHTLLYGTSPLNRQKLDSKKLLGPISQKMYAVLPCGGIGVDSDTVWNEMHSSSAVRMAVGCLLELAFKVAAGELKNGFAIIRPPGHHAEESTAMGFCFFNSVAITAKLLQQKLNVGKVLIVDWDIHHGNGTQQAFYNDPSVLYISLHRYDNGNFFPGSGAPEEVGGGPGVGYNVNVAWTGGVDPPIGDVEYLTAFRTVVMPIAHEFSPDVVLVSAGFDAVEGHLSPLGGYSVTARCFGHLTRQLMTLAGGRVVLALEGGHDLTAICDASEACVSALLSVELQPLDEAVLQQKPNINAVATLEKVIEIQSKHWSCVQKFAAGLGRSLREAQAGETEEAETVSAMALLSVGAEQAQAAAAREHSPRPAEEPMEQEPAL
T3 sequence (Q13547 whole entry): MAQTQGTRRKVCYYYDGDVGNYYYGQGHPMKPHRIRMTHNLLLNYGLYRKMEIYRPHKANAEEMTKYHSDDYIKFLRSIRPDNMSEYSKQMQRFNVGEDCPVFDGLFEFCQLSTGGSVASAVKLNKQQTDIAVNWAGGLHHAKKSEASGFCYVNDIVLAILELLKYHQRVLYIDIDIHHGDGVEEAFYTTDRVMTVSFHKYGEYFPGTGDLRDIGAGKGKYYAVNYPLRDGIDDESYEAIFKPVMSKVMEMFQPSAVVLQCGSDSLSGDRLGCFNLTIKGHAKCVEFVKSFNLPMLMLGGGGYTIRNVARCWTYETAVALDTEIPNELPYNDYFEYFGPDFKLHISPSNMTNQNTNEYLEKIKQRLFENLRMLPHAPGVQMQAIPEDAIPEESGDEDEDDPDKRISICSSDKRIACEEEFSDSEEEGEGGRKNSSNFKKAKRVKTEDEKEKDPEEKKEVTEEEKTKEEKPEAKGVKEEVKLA

A word on the IC50: it is the concentration at which inhibition is half-maximal. Consider `FC(F)(F)c1nc(-c2ccc(CN(c3ccc(C4CC4)cn3)c3cnccn3)s2)no1` [Example AA, N-(5-Cyclopropylpyridin-2-yl)-N-({5-[5-(trifluoromethyl)-1,2,4-oxadiazol-3-yl]thiophen-2-yl}methyl)pyrazin-2-amine], for which the IC50 on Human HDAC9 is not above 10000 nM; on Human HDAC5, not above 10000 nM; at Human HDAC1, more than 10000 nM; on Human HDAC4 it was not above 10000 nM; at Recombinant human HDAC6, not above 10000 nM; on Human HDAC7, not above 10000 nM.
With `FC(F)(F)c1ccc(N(Cc2ccc(-c3noc(C(F)(F)F)n3)s2)c2cnccn2)nc1` [Example AB, N-({5-[5-(Trifluoromethyl)-1,2,4-oxadiazol-3-yl]thiophen-2-yl}methyl)-N-[5-(trifluoromethyl)pyridin-2-yl]pyrazin-2-amine], the IC50 was not above 10000 nM at Human HDAC9; not above 10000 nM at Human HDAC5; more than 10000 nM at Human HDAC1; not above 10000 nM on Human HDAC4; not above 10000 nM at Recombinant human HDAC6; more than 10000 nM on Human HDAC7.
Consider `CN(C)C(=O)c1ccc(N(Cc2ccc(-c3noc(C(F)(F)F)n3)s2)c2cnccn2)nc1` [Example AC, N,N-Dimethyl-6-[pyrazin-2-yl({5-[5-(trifluoromethyl)-1,2,4-oxadiazol-3-yl]thiophen-2-yl}methyl)amino]pyridine-3-carboxamide], for which the concentration for half-maximal inhibition (IC50) is not above 10000 nM on Human HDAC9; not above 1000 nM at Human HDAC5; more than 10000 nM on Human HDAC1; not above 1000 nM on Human HDAC4; not above 1000 nM on Recombinant human HDAC6; not above 10000 nM on Human HDAC7.
Consider `FC(F)(F)c1nc(-c2ccc(CN(c3ccc(N4CCOCC4)cn3)c3cnccn3)s2)no1` [Example AD, N-[5-(Morpholin-4-yl)pyridin-2-yl]-N-({5-[5-(trifluoromethyl)-1,2,4-oxadiazol-3-yl]thiophen-2-yl}methyl)pyrazin-2-amine], for which the IC50 at Human HDAC9, at Human HDAC5, at Human HDAC1, at Human HDAC4, at Recombinant human HDAC6 and on Human HDAC7 was not above 10000 nM throughout.
As for `Cn1cnc2cc(N(Cc3ccc(-c4noc(C(F)(F)F)n4)s3)c3cnccn3)ncc21` [Example AE, N-{3-Methyl-3H-imidazo[4,5-c]pyridin-6-yl}-N-({5-[5-(trifluoromethyl)-1,2,4-oxadiazol-3-yl]thiophen-2-yl}methyl)pyrazin-2-amine], the IC50 at Human HDAC9 is not above 10000 nM; on Human HDAC5 it was not above 500 nM; on Human HDAC1, more than 10000 nM; on Human HDAC4, not above 500 nM; on Recombinant human HDAC6 it was not above 10000 nM; on Human HDAC7, not above 1000 nM.
As to `FC(F)(F)c1nc(-c2ccc(CN(c3cnccn3)c3cc4nccnc4cn3)s2)no1` [Example AF, N-{Pyrido[3,4-b]pyrazin-7-yl}-N-({5-[5-(trifluoromethyl)-1,2,4-oxadiazol-3-yl]thiophen-2-yl}methyl)pyrazin-2-amine], the IC50 at Human HDAC9 is not above 10000 nM; at Human HDAC5 it was not above 1000 nM; at Human HDAC1 it was more than 10000 nM; on Human HDAC4 it was not above 10000 nM; at Recombinant human HDAC6, not above 1000 nM; at Human HDAC7, not above 10000 nM.
As to `FC(F)(F)c1nc(-c2ccc(CN(c3cnccn3)c3cc(C4CC4)ccn3)s2)no1` [Example AH, N-(4-Cyclopropylpyridin-2-yl)-N-({5-[5-(trifluoromethyl)-1,2,4-oxadiazol-3-yl]thiophen-2-yl}methyl)pyrazin-2-amine], the IC50 was more than 10000 nM on Human HDAC9; not above 10000 nM at Human HDAC5; more than 10000 nM on Human HDAC1; more than 10000 nM at Human HDAC4; not above 10000 nM on Recombinant human HDAC6; more than 10000 nM at Human HDAC7.
In the case of `FC(F)(F)c1ccnc(N(Cc2ccc(-c3noc(C(F)(F)F)n3)s2)c2cnccn2)c1` [Example AI, N-({5-[5-(Trifluoromethyl)-1,2,4-oxadiazol-3-yl]thiophen-2-yl}methyl)-N-[4-(trifluoromethyl)pyridin-2-yl]pyrazin-2-amine], the IC50 was more than 10000 nM at Human HDAC9; not above 10000 nM at Human HDAC5; more than 10000 nM on Human HDAC1; more than 10000 nM on Human HDAC4; not above 10000 nM at Recombinant human HDAC6; more than 10000 nM on Human HDAC7.
